Reference: the supplement of paper PMC10627819

Assays:
B. subtilis 168 [1] = test: fitness (endpoint OD595 vs no drug) (fraction); higher = more growth
Procedure, shortened: (§1)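 Growth medium was TSB, LB Lennox or CY, and plates were kept at 37 °C. Inoculation was at OD595 0.01 in 384-well plates, at 30 µl per well or 55 µl for S. pneumoniae. OD595 was monitored every 30 min for 14 h and background-subtracted using the first reading. Fitness is the optical density on entering stationary phase divided by the robust mean of no-drug controls, with values capped at 1.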

S. pneumoniae D39V [2] = test: as above
Procedure, shortened: as §1

S. aureus Newman = test: Bliss interaction score (quartile over a dose matrix) (fitness difference); higher = more antagonism (negative = synergy)
Procedure, shortened: (§2)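 The Bliss score is observed minus expected fitness, where expected fitness is the product of the single-drug fitness values inferred from the combination data. Fitness is the OD595 at the onset of stationary phase over the plate's robust no-drug mean, capped at 1. Scores are summarised by quartiles over technical, biological and donor/recipient replicates.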

B. subtilis 168 [3] = test: as above
Procedure, shortened: as §2

S. aureus DSM 20231 = test: as above
Procedure, shortened: as §2

S. pneumoniae D39V [4] = test: as above
Procedure, shortened: as §2
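Throughout, for Bliss interaction score (quartile over a dose matrix): first quartile when negative (synergy) and third quartile when positive (antagonism).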
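Throughout, for fitness (endpoint OD595 vs no drug): OD595 on entry to stationary phase over no-drug wells; at most 1.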

CO/N=C(\C(=O)N[C@@H]1C(=O)N2C(C(=O)O)=C(COC(C)=O)CS[C@H]12)c1csc(N)n1 [Cefotaxime] + C[C@H]1COc2c(N3CCN(C)CC3)c(F)cc3c(=O)c(C(=O)O)cn1c23 [Levofloxacin]
fitness, B. subtilis 168 [1], one replicate
Details	first compound 0.00775 µg/mL	first compound 0.0155 µg/mL	first compound 0.031 µg/mL	first compound 0.0625 µg/mL	first compound 0.125 µg/mL	first compound 0.25 µg/mL
partner 0.001 µg/mL	–	–	–	0.491	0.378	0.158
partner 0.002 µg/mL	0.874	0.691	0.57	0.382	0.311	0.158
partner 0.0039 µg/mL	0.834	0.683	0.565	0.418	0.306	0.128
partner 0.0078 µg/mL	0.812	0.659	0.496	–	–	–

Details	fitness
B. subtilis 168 [1], first compound 0.5 µg/mL, partner 0.0312 µg/mL	0.0483
B. subtilis 168 [1], first compound 0.5 µg/mL, partner 0.0625 µg/mL	0.0584
B. subtilis 168 [1], first compound 0.5 µg/mL, partner 0.125 µg/mL	0.0586
B. subtilis 168 [1], first compound 1 µg/mL, partner 0.0312 µg/mL	0.0414
B. subtilis 168 [1], first compound 1 µg/mL, partner 0.0625 µg/mL	0.0443
B. subtilis 168 [1], first compound 1 µg/mL, partner 0.125 µg/mL	0.0448
B. subtilis 168 [1], first compound 2 µg/mL, partner 0.0312 µg/mL	0.0456
B. subtilis 168 [1], first compound 2 µg/mL, partner 0.0625 µg/mL	0.0537
B. subtilis 168 [1], first compound 2 µg/mL, partner 0.125 µg/mL	0.0738
S. pneumoniae D39V [2], first compound 0.0018 µg/mL, partner 0.1725 µg/mL	0.986
S. pneumoniae D39V [2], first compound 0.0018 µg/mL, partner 0.2 µg/mL	0.966
S. pneumoniae D39V [2], first compound 0.0018 µg/mL, partner 0.345 µg/mL	0.956
S. pneumoniae D39V [2], first compound 0.0018 µg/mL, partner 0.4 µg/mL	0.925
S. pneumoniae D39V [2], first compound 0.0018 µg/mL, partner 0.69 µg/mL	0.701
S. pneumoniae D39V [2], first compound 0.0018 µg/mL, partner 0.8 µg/mL	0.632
S. pneumoniae D39V [2], first compound 0.0035 µg/mL, partner 0.1725 µg/mL	0.985
S. pneumoniae D39V [2], first compound 0.0035 µg/mL, partner 0.2 µg/mL	0.943
S. pneumoniae D39V [2], first compound 0.0035 µg/mL, partner 0.345 µg/mL	0.939
S. pneumoniae D39V [2], first compound 0.0035 µg/mL, partner 0.4 µg/mL	0.894
S. pneumoniae D39V [2], first compound 0.0035 µg/mL, partner 0.69 µg/mL	0.656
S. pneumoniae D39V [2], first compound 0.0035 µg/mL, partner 0.8 µg/mL	0.611
S. pneumoniae D39V [2], first compound 0.007 µg/mL, partner 0.1725 µg/mL	0.824
S. pneumoniae D39V [2], first compound 0.007 µg/mL, partner 0.2 µg/mL	0.922
S. pneumoniae D39V [2], first compound 0.007 µg/mL, partner 0.345 µg/mL	0.731
S. pneumoniae D39V [2], first compound 0.007 µg/mL, partner 0.4 µg/mL	0.846
S. pneumoniae D39V [2], first compound 0.007 µg/mL, partner 0.8 µg/mL	0.548

Details	Bliss interaction score
B. subtilis 168 [3]	0.0631
S. aureus DSM 20231	-0.0398
S. aureus Newman	0.0336
S. pneumoniae D39V [4]	0.112

CO/N=C(\C(=O)N[C@@H]1C(=O)N2C(C(=O)O)=C(COC(C)=O)CS[C@H]12)c1csc(N)n1 [Cefotaxime] + C[C@H]1c2cccc(O)c2C(=O)C2=C(O)[C@]3(O)C(=O)C(C(N)=O)=C(O)[C@@H](N(C)C)[C@@H]3[C@@H](O)[C@@H]21 [Doxycycline]
fitness, one replicate
Details	first compound 0.0018 µg/mL	first compound 0.0035 µg/mL	first compound 0.007 µg/mL	first compound 0.00775 µg/mL	first compound 0.0155 µg/mL	first compound 0.031 µg/mL	first compound 0.0625 µg/mL	first compound 0.125 µg/mL	first compound 0.25 µg/mL
B. subtilis 168 [1], partner 0.02 µg/mL	–	–	–	0.855	0.698	0.508	0.608	0.538	0.467
B. subtilis 168 [1], partner 0.04 µg/mL	–	–	–	0.665	0.523	0.377	0.511	0.366	0.304
B. subtilis 168 [1], partner 0.08 µg/mL	–	–	–	0.278	0.0446	0.0311	0.343	0.209	0.252
S. pneumoniae D39V [2], partner 0.003875 µg/mL	≥ 1	≥ 1	0.866	–	–	–	–	–	–
S. pneumoniae D39V [2], partner 0.00775 µg/mL	≥ 1	0.974	0.888	–	–	–	–	–	–

fitness
Details	first compound 0.0018 µg/mL	first compound 0.0035 µg/mL	first compound 0.007 µg/mL	first compound 0.5 µg/mL	first compound 1 µg/mL	first compound 2 µg/mL
B. subtilis 168 [1], partner 0.02 µg/mL	–	–	–	0.288	0.198	0.157
B. subtilis 168 [1], partner 0.04 µg/mL	–	–	–	0.204	0.086	0.0899
B. subtilis 168 [1], partner 0.08 µg/mL	–	–	–	0.0692	0.0318	0.0723
S. pneumoniae D39V [2], partner 0.0155 µg/mL	0.955	0.943	0.864	–	–	–
S. pneumoniae D39V [2], partner 0.031 µg/mL	0.814	0.801	0.794	–	–	–

Details	Bliss interaction score
B. subtilis 168 [3]	0.0737
S. aureus DSM 20231	0.141
S. aureus Newman	0.0304
S. pneumoniae D39V [4]	0.0963

O=C(O)c1cn(C2CC2)c2cc(N3CCNCC3)c(F)cc2c1=O [Ciprofloxacin] + CC(=O)NC[C@H]1CN(c2ccc(N3CCOCC3)c(F)c2)C(=O)O1 [Linezolid]
one replicate
Details	fitness
B. subtilis 168 [1], first compound 0.0098 µg/mL, partner 0.0625 µg/mL	0.889
B. subtilis 168 [1], first compound 0.0195 µg/mL, partner 0.0625 µg/mL	0.856
B. subtilis 168 [1], first compound 0.039 µg/mL, partner 0.0625 µg/mL	0.417
S. pneumoniae D39V [2], first compound 0.25 µg/mL, partner 0.2 µg/mL	0.442
S. pneumoniae D39V [2], first compound 0.25 µg/mL, partner 0.4 µg/mL	0.28
S. pneumoniae D39V [2], first compound 0.25 µg/mL, partner 0.8 µg/mL	0.154

Details	fitness
B. subtilis 168 [1], first compound 0.0195 µg/mL, partner 0.125 µg/mL	0.609
B. subtilis 168 [1], first compound 0.0195 µg/mL, partner 0.5 µg/mL	0.334
B. subtilis 168 [1], first compound 0.039 µg/mL, partner 0.125 µg/mL	0.394
B. subtilis 168 [1], first compound 0.039 µg/mL, partner 0.5 µg/mL	0.263
S. pneumoniae D39V [2], first compound 0.125 µg/mL, partner 0.105 µg/mL	0.788
S. pneumoniae D39V [2], first compound 0.125 µg/mL, partner 0.2 µg/mL	0.567
S. pneumoniae D39V [2], first compound 0.125 µg/mL, partner 0.21 µg/mL	0.712
S. pneumoniae D39V [2], first compound 0.125 µg/mL, partner 0.4 µg/mL	0.298
S. pneumoniae D39V [2], first compound 0.125 µg/mL, partner 0.42 µg/mL	0.536
S. pneumoniae D39V [2], first compound 0.125 µg/mL, partner 0.8 µg/mL	0.146
S. pneumoniae D39V [2], first compound 0.25 µg/mL, partner 0.105 µg/mL	0.776
S. pneumoniae D39V [2], first compound 0.25 µg/mL, partner 0.21 µg/mL	0.7
S. pneumoniae D39V [2], first compound 0.25 µg/mL, partner 0.42 µg/mL	0.551
S. pneumoniae D39V [2], first compound 0.5 µg/mL, partner 0.105 µg/mL	0.61
S. pneumoniae D39V [2], first compound 0.5 µg/mL, partner 0.2 µg/mL	0.443
S. pneumoniae D39V [2], first compound 0.5 µg/mL, partner 0.21 µg/mL	0.569
S. pneumoniae D39V [2], first compound 0.5 µg/mL, partner 0.4 µg/mL	0.252
S. pneumoniae D39V [2], first compound 0.5 µg/mL, partner 0.42 µg/mL	0.414
S. pneumoniae D39V [2], first compound 0.5 µg/mL, partner 0.8 µg/mL	0.119

Details	Bliss interaction score
B. subtilis 168 [3]	0.247
S. aureus DSM 20231	0.0785
S. aureus Newman	0.081
S. pneumoniae D39V [4]	0.0563
